Where a name gives a salt, the structure may show the parent alone. Read-outs that look alike come from different tables or passages of the source.
What was measured:
[1] = target: T1, glucoamylase G2 form from Aspergillus niger (Aspergillus niger, UniProt P69328); assay: Inhibition of glucoamylase G2-catalyzed hydrolysis of maltose; format: biochemical
T1 construct: purchased Novo Nordisk, Bagsvaerd, Denmark
Method: The glucoamylase G2 form from Aspergillus niger was purified from a commercial enzyme (Novo Nordisk, Bagsvaerd, Denmark) as described.^19,20 The initial rates of glucoamylase G2-catalyzed hydrolysis of maltose was tested with 1 mM maltose as substrate in 0.1 M sodium acetate pH 4.5 at 45° C. using an enzyme concentration of 7.0×10^−8 M and five inhibitor concentrations in the range 1 μm-5 mM. The effect of the inhibition on rates of substrate hydrolysis were compared for the different compounds.

[2] = target: T2, Recombinant barley α-amylase isozyme 1 (AMY1) (Hordeum vulgare, UniProt P00693); assay: Inhibition of barley α-amylase isozyme 1 activity towards DP17 amylose; format: biochemical
T2 construct: made in house
T2 sequence (P00693 25-438): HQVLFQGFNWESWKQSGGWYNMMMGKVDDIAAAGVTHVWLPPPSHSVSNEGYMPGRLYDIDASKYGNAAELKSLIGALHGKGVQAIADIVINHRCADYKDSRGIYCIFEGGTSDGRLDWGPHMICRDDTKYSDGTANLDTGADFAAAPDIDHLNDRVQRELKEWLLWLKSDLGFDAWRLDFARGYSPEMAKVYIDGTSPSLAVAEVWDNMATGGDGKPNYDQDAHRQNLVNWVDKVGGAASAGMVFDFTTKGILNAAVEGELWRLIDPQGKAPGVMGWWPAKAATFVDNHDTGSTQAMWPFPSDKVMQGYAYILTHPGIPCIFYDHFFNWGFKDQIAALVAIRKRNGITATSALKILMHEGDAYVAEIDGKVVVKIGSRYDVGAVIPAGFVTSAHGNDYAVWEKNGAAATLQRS
From the text: (§1) Porcine pancreatic α-amylase (PPA) and bovine serum albumin (BSA) were purchased from Sigma. Amylose EX-1 (DP17; average degree of polymerization 17) was purchased from Hayashibara Chemical Laboratories (Okayama, Japan). Recombinant barley α-amylase isozyme 1 (AMY1) was produced and purified as described.^23 An aliquot of the porcine pancreatic x-amylase (PPA) crystalline suspension (in ammonium sulfate) was dialyzed extensively against the assay buffer without BSA. The enzyme concentration was determined by aid of amino acid analysis as determined using an LKB model Alpha Plus amino acid analyzer. […] Six different final inhibitor concentrations were used in the range 1 μM-5 mM. The inhibitor was pre-incubated with enzyme for 5 min at 37° C. before addition of substrate.

[3] = target: T3, porcine pancreatic α-amylase (PPA) (Sus scrofa, UniProt P00690); assay: Inhibition of porcine pancreatic α-amylase activity towards DP17 amylose; format: biochemical
T3 construct: purchased Sigma
T3 sequence (P00690 16-511): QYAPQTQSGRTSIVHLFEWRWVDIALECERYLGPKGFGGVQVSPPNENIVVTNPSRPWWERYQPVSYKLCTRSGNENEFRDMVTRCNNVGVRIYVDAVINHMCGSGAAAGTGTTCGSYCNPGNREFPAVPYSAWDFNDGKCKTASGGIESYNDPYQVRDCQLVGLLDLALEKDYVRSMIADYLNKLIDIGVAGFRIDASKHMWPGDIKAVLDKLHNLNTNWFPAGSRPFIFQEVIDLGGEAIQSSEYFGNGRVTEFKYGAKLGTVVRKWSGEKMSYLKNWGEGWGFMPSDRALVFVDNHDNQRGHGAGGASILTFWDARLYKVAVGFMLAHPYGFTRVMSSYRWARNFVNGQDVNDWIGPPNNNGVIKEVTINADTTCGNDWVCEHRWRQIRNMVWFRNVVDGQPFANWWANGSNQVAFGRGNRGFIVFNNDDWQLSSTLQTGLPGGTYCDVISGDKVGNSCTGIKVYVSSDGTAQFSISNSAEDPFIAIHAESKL
From the text: as §1

[4] = target: T4, Maltase Glucoamylase (MGA) (Homo sapiens, UniProt O43451); assay: Inhibition of recombinant human maltase glucoamylase (MGA), maltose substrate, glucose oxidase readout; format: biochemical; settings: for IC50: read-out: IC50 value against recombinant human MGA; for Ki: maltose substrate, 100 mM MES buffer pH 6.5, 37° C., read-out: Ki value against recombinant human maltase glucoamylase (MGA)
Method: Enzyme Activity Assay. Analysis of MGA inhibition was performed using maltose as the substrate, and measuring the release of glucose. Reactions were carried out in 100 mM MES buffer pH 6.5 at 37° C. for 15 min. The reaction was stopped by boiling for 3 min. 20 μL aliquots were taken and added to […] of glucose oxidase assay reagent (Sigma) in a 96-well plate. Reactions were developed for 1 hour and absorbance was measured at 450 nm to determine the amount of glucose produced by MGA activity in the reaction. One unit of activity is defined as the hydrolysis of one […] of maltose per minute. All reactions were performed in triplicate and absorbance measurements were averaged to give a final result.
The program GraFit 4.0.14 was used to fit the data to the Michaelis-Menten equation and estimate the kinetic parameters, Km and Vmax, of the enzyme. Ki values for each inhibitor were determined by measuring the rate of maltose hydrolysis by MGA at varying inhibitor concentrations. Data were plotted in Lineweaver-Burk plots (1/rate vs. 1/[substrate]) and Ki values were determined by the equation Ki=Km[I]/(Vmax)m−Km, where “m” is the slope of the line. The Ki reported for each inhibitor was estimated by averaging the Ki values obtained from each of the different inhibitor concentrations.
Target sequence in this assay (O43451 87-954 limits assumed): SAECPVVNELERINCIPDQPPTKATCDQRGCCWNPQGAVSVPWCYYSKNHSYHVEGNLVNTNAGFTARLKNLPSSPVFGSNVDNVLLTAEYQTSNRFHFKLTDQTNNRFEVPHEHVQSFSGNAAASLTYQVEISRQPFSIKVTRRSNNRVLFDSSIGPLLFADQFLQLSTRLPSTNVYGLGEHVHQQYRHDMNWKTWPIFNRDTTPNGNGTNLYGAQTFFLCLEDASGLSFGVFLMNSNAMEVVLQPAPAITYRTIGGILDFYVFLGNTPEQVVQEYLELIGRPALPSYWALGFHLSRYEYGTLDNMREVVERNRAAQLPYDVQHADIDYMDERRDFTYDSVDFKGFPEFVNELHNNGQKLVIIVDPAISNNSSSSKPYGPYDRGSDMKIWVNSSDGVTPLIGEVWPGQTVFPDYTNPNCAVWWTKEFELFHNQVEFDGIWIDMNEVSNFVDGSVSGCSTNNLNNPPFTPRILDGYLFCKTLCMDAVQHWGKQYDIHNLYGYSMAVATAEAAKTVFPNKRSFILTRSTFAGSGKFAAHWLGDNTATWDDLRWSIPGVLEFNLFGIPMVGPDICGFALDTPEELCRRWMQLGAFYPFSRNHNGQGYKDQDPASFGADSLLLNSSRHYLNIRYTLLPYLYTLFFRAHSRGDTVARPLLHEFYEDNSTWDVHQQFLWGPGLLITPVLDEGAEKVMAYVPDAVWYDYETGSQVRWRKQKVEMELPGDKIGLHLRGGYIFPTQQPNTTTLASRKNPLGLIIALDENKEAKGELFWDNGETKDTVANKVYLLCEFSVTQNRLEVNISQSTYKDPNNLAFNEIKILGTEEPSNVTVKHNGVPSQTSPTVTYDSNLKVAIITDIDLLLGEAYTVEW

[5] = target: T4, Maltase Glucoamylase (MGA); assay: MGA activity in extracts of COS cells transfected with MGA5′ (maltase subunit) construct, maltose hydrolysis, glucose oxidase colorimetric assay; format: biochemical; design: COS cells transfected with MGA5′ (maltase subunit clone 10) construct were used; expressed in transfected cells; host or cells: COS cells
Method: In the assays, COS cells transfected with MGA5′ (maltase subunit clone 10) construct were used. Activity measurements were performed with cell extracts containing MGA. Maltose hydrolysis was monitored by measurement of the glucose released by a glucose oxidase colorimetric assay. Inhibition of this hydrolysis was measured as a reduction in OD reading.
In practice, an OD reading in the absence of the inhibitor was recorded, followed by a reading in the presence of the inhibitor. The percent reduction in OD reading upon administering a candidate inhibitor (see Table 11) was then correlated with a percent inhibition for a given concentration.
Target sequence in this assay (O43451 356-737 limits assumed): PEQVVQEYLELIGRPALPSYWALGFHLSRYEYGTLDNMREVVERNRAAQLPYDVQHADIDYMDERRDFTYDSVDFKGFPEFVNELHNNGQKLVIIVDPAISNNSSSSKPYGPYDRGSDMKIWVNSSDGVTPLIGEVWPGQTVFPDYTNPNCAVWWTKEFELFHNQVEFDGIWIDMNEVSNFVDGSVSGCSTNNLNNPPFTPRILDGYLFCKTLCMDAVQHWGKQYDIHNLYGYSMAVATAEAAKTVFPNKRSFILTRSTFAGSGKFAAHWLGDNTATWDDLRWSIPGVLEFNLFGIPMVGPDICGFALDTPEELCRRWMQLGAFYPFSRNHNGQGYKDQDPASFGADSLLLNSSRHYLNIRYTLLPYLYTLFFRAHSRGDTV

Sprague-Dawley rats = assay: In vivo maltose gavage in catheterized rats: plasma glucose and insulin; design: species or system rat; settings: maltose gavage 1000 mg/kg with 25 mg/kg drug
Method: Five week old Sprague-Dawley rats were housed singly under a 12:12-h light-dark photoperiod and given free access to water and rat chow (Purina rodent chow). After one week of acclimation, chronic indwelling catheters were implanted.
Animals were anesthetized with a combination of Ketamine-Xylazine-Butorphanol (0.1 ml/100 g im). Analgesic (Butorphenol, 1 mg/kg sc) was administered following recovery from anesthesia and the following morning. Antibiotic was administered by one dose sc and in the drinking water for 4 days post-operative (Baytril, 5 mg/kg sc, Bayer, Toronto, Canada; Baytril, 50 mg/ml: 0.36 ml solution in 250 ml drinking water). A sterile catheter (Intramedic PE-50 with ˜3 cm beveled Silastic tip) was placed in the left carotid artery and the distal end of the catheter was tunneled subcutaneously, exteriorized, and anchored at the nape of the neck. The catheters were protected from chewing by a stainless steel tether connected to a swivel system which allowed free movement of the animal and easy access to the catheter by the investigator.
The animals were allowed to recover for 1 week. Experiments were performed on conscious, unrestrained animals that had been fasted overnight by removal of chow from the cage hoppers at 2100. At 0800 the following morning animals were weighed and Atropine (0.05 mg/kg sc) was administered as a […]. At baseline, animals were administered a bolus of maltose by oral gavage (1000 mg/kg body weight) with or without drug (25 mg/kg body weight for all agents). Blood samples (0.1 mL) were taken via the implanted carotid line at -15 and -5 min for the baseline and at 7, 15, 30, 60, 90, 120, 210, 300 min.
Blood samples were kept on ice in microcentrifuge tubes and then were centrifuged. The plasma was stored at −20° C. until it was assayed. Plasma volume was triple replaced with heparinized saline (10u/mL), but red blood cells were not reinfused. Plasma glucose was assayed with the glucose oxidase method (Trinder RAICHEM Division of Hemagen Diagnostics, Inc. San Diego, Calif.). Plasma insulin concentrations were measured by rat insulin ELISA (Crystal Chem INC, Downers Grove, Ill.). Six experiments were performed for each treatment (control, Blintol, Acarbose, Salacinol).
All data are presented as means±SE. The significance of changes in plasma glucose and insulin were tested by two-way repeated-measures analysis of variance and were performed with the Statistical Analysis System for Windows (version 6.3, SAS Institute, Cary, N.C.). AUCs were compared using unpaired t-tests.

[6] = read-out: Ki AMY1 (Barley α-amylase)
[7] = read-out: Ki PPA (Porcine pancreatic α-amylase)

T1 sequence (P69328 other isoform, or with tags, fused parts or gaps): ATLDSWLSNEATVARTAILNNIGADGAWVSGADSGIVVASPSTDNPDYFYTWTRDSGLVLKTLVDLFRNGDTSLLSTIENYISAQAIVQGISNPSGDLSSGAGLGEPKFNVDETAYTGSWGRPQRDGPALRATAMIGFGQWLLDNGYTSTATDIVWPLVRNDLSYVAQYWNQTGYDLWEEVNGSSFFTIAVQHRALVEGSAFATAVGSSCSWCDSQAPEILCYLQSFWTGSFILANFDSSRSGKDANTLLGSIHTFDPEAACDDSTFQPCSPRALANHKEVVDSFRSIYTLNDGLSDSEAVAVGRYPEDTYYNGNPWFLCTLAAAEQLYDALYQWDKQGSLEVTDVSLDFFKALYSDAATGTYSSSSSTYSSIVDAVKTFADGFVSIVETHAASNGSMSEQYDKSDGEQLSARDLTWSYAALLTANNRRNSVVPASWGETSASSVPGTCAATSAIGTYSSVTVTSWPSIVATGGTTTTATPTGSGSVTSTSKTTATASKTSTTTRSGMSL

Compound: O=S(=O)([O-])O[C@@H](CO)[C@H](O)C[S@+]1C[C@H](O)[C@@H](O)[C@H]1CO
- Ki [1]: > 5000 µM
- Ki [2, 6]: 109 µM
- Ki [3, 7]: 52 µM

Compound: O=S(=O)([O-])O[C@H]([C@H](O)[C@@H](O)CO)[C@H](O)C[S@+]1C[C@@H](O)[C@H](O)[C@H]1CO [Compound 95, 1,4-Dideoxy-1,4-[[2S,3R,4R,5S-2,4,5,6-tetrahydroxy-3-(sulfooxy)hexyl]episufonium-ylidene]-D-arabinitol]
- inhibitory activity against recombinant human MGA (in words) [4]: active

Compound: O=S(=O)(O)OC(C(O)CN1CC(O)C(O)C1CO)C(O)C(O)CO (single isomer, unassigned) [Compound 255]
- IC50 [4]: 30 µM

Compound: C[C@H]1O[C@H](O[C@H]2[C@H](O)[C@@H](O)[C@@H](O[C@H]3[C@H](O)[C@@H](O)C(O)O[C@@H]3CO)O[C@@H]2CO)[C@H](O)[C@@H](O)[C@@H]1N[C@H]1C=C(CO)[C@@H](O)[C@H](O)[C@H]1O (stereo partly shown) [Acarbose]
- inhibition at 5 µM ([5]; 5 μM concentration, COS cell extracts containing MGA, read-out: percent inhibition of the breakdown of maltose): 4%
- time at which plasma glucose returned to basal (Sprague-Dawley rats): 90 min
- 15 minute glucose excursion from basal (Sprague-Dawley rats; mean ± SE, n=6): 34.2 ± 3.5 mg/dL
- decrease of the 90 minute insulin AUC (Sprague-Dawley rats; versus Control): 49%

Compound: O=S(=O)([O-])O[C@@H]([C@H](O)CO)[C@H](O)C[S@+]1C[C@@H](O)[C@H](O)[C@H]1CO [Compound 97, 1,4-Dideoxy-1,4-[[2S,3S,4R-2,4,5-trihydroxy-3-(sulfooxy)pentyl]episufonium-ylidene]-D-arabinitol]
- Ki [4]: 0.17 µM

Compound: O=S(=O)([O-])O[C@H](CO)[C@@H](O)C[S@@+]1C[C@H](O)[C@@H](O)[C@@H]1CO
- Ki [1]: 2170 µM
- Ki [2, 6]: > 5000 µM
- Ki [3, 7]: > 5000 µM

Compound: O=S(=O)([O-])O[C@@H]([C@H](O)C[S@+]1C[C@@H](O)[C@H](O)[C@H]1CO)[C@@H](O)CO [Compound 94, 1,4-Dideoxy-1,4-[[2S,3R,4S-2,4,5-trihydroxy-3-(sulfooxy)pentyl]episufonium-ylidene]-D-arabinitol]
- inhibitory activity against recombinant human MGA (in words) [4]: did not inhibit

Compound: O=S(=O)(O)OC(C(O)CN1CC(O)C(O)C1CO)C(O)C(O)CO (single isomer, unassigned) [Compound 196]
- Ki [4]: 5 µM

Compound: O=S(=O)([O-])OC(C(O)C[S+]1CC(O)C(O)C1CO)C(O)C(O)CO [Compound 192, 1,4-Dideoxy-1,4-[[(2R,3S,4R,5R)-2,4,5,6-tetrahydroxy-3-(sulfooxy)hexyl]-episulfoniumylidene]-D-arabinitol Inner Salt]
- inhibitory activity against recombinant human MGA (in words) [4]: not active

Compound: O=S(=O)(O)O[C@@H](CO)[C@H](O)CN1C[C@H](O)[C@@H](O)[C@H]1CO
- Ki ([1]; read-out: Ki GA (Glucoamylase)): > 30000 µM
- Ki [2, 6]: > 5000 µM
- Ki [3, 7]: > 5000 µM

Compound: O=S(=O)([O-])O[C@@H](CO)[C@H](O)C[S@+]1C[C@@H](O)[C@@H](O)[C@H]1CO [Compound 233, 1,4-Dideoxy-1,4-[[(2S,3S)-2,4-dihydroxy-3-(sulfooxy)butyl]-(S)-episulfoniumylidene]-D-lyxitol Inner Salt]
- inhibitory activity against recombinant human MGA (in words) [4]: not effective inhibitors

Compound: O=S(=O)([O-])O[C@H](CO)[C@@H](O)C[Se@+]1C[C@@H](O)[C@H](O)[C@H]1CO
- Ki ([1]; read-out: Ki GA (Glucoamylase)): > 9000 µM
- Ki [2]: > 5000 µM
- Ki [3]: > 5000 µM

Compound: O=S(=O)(O)OC(C(O)CN1CC(O)C(O)C1CO)C(O)C(O)CO (single isomer, unassigned) [Compound 252]
- IC50 [4]: 100 µM

Compound: O=S(=O)([O-])O[C@H](CO)[C@@H](O)C[S@+]1C[C@@H](O)[C@H](O)[C@H]1CO
- Ki [1]: 1060 µM
- Ki [2, 6]: > 5000 µM
- Ki [3, 7]: > 5000 µM

Compound: O=S(=O)([O-])O[C@@H]([C@H](O)[C@@H](O)CO)[C@H](O)C[S@+]1C[C@@H](O)[C@H](O)[C@H]1CO [Compound 96, 1,4-Dideoxy-1,4-[[2S,3S,4R,5S-2,4,5,6-tetrahydroxy-3-(sulfooxy)hexyl]episufonium-ylidene]-D-arabinitol]
- inhibitory activity against recombinant human MGA (in words) [4]: active

Compound: O=S(=O)(O)OC(C(O)CN1CC(O)C(O)C1CO)C(O)C(O)CO (single isomer, unassigned) [Compound 193]
- Ki [4]: 26 µM

Compound: O=S(=O)(O)O[C@@H](CO)[C@H](O)CN1C[C@@H](O)[C@H](O)[C@H]1CO
- Ki ([1]; read-out: Ki GA (Glucoamylase)): > 2500 µM
- Ki [2, 6]: > 5000 µM
- Ki MGA (Human intestinal maltase glucoamylase) ([5]; only the order of magnitude of activity (nM, μM, mM) or n.a. = not active): mM
- Ki [3, 7]: > 5000 µM

Compound: O=S(=O)([O-])O[C@@H](CO)[C@H](O)C[S@+]1C[C@H](O)[C@H](O)[C@H]1CO [Compound 234, 1,4-Dideoxy-1,4-[[(2S,3S)-2,4-dihydroxy-3-(sulfooxy)butyl]-(R)-episulfoniumylidene]-D-ribitol Inner Salt]
- inhibitory activity against recombinant human MGA (in words) [4]: not effective inhibitors

Compound: OC1C[S+]2CCCC2[C@@H](O)C1O (stereo partly shown)
- Ki ([1]; read-out: Ki GA (Glucoamylase)): 1320 µM
- Ki [2, 6]: > 5000 µM
- Ki [3, 7]: > 5000 µM

Source: US8389565B2, “Glycosidase inhibitors and methods of synthesizing same” (Simon Fraser University, priority 2000, dated 2013)
